Measured values: US7144710B2, “Method for detecting inflammation and inflammatory conditions” (Trustees of Dartmouth College, priority 2000, dated 2006)

Assays:
[1] = test system: monocyte CD163 expression; test: CD163 expression on monocytes of cultured PBMCs, staining and flow cytometric analysis; format: cell-based, human; conditions: for increase of monocyte CD163 expression: PBMCs treated 24 hours, agent alone, 200 nM DEX, vs control media, p<0.01; for CD163 expression of cytokine given in combination with DEX over DEX treatment alone: PBMCs 24 hours
Experimental: To assess whether different cytokines could influence CD163 expression, freshly isolated PBMCs were cultured for 24 hours in the presence of various cytokines, 200 nM DEX (as a positive control for CD163 upregulation), or control media. The cells were then subjected to staining and flow cytometric analysis.
For cytokine treatment studies, isolated PBMCs were suspended in hepes buffered RPMI 1640/0.05% gentamicin/10% FBS at a concentration of 2.0×10^6 to 2.5×10^6 cells/ml and cultured in 96 well plates at 37° C. and 5% CO2 in the presence of various mediators (Table 1). Mononuclear cells were stained for flow cytometric analysis after 24 hours in culture unless otherwise indicated. This enhanced cell recovery because monocytes, which initially adhere to plastic vessels, transiently detach from culture wells at 24–48 hours.
All staining procedures were performed at 4 C. Briefly, cultured PBMCs were incubated with normal human IgG (6 mg/ml) to block Fc receptor-specific binding of mAbs and 30 μg/ml of the isotype control mAb P3 or a saturating amount of mAb MAC2-48 (20 μg/ml) for one hour. Cells were then washed and stained for one hour with 17.5 μg/ml FITC labeled goat F(ab=)2 anti-mouse Ig. The cells were again washed and fixed with 1% methanol free formalin.
Cell fluorescence of monocytes gated using forward and side scatter was analyzed using a Becton Dickenson FACScan (Franklin Lakes, N.J.). Mean fluorescence intensity (MFI) was calculated by subtracting the MFI of the P3 stained mononuclear cells from the MFI of the corresponding Mac 2-48 stained cells.

monocyte surface CD163 [2] = test: Shedding of monocyte surface CD163 in vitro; format: cell-based, human; conditions: for shedding of surface CD163 from cells pre-treated with glucocorticoids plus LPS: subsequent treatment with the agent
Experimental: Therefore, like PMA, LPS is capable of inducing CD163 shedding. LPS-induced shedding occurred even with monocytes that had been cultured for 48 hours in DEX and thus had 5- to 10-fold higher levels of surface CD163 than freshly isolated monocytes. […] This LPS-conferred resistance to subsequent LPS-induced shedding of CD163 is similar to reported endotoxin pre-conditioning for resistance to subsequent inflammatory insults.

monocyte surface CD163 [3] = conditions: Droste et al. 1999; blocked by protease inhibitors; cited from earlier work
soluble CD163 in plasma = test: Soluble CD163 in plasma of healthy volunteers after LPS bolus infusion (ELISA); format: in vivo, human; conditions: 4 ng/kg bolus infusion of LPS
Experimental: In order to provide for use of CD163 as a biomarker of inflammation, a method for detection of CD163 in biological samples such as plasma was developed. The assay of detection is an ELISA assay using a CD163-specific antibody such as MAC2-158 or MAC2-48 as the CD163 capture antibody and the commercially available biotinylated antibody RM3/1 as the CD163 detection antibody. Briefly, plates were coated with purified MAC2-158 or MAC2-48 antibody and incubated overnight at 4 C. After washing, non-specific binding was blocked by adding blocking buffer to each plate well and incubating for 30 minutes at room temperature. […]
In order to more closely mimic the in vivo inflammatory response to infection in a more controlled setting than the cardiac patients described above, healthy volunteers were administered a 4 ng/kg bolus infusion of LPS and monitored the levels of soluble CD163 in plasma. […] Levels of CD163 in plasma were measured using the assay of the present invention. […] Changes in levels of known acute phase proteins, glucocorticoids, and pro- and anti-inflammatory cytokines were also monitored in order to determine if their levels correlated with the appearance of soluble CD163 in plasma. […]
ELISA plates were coated, 100 μl per well, with 5 μg/ml purified MAC2-158 (coating buffer of 0.1 M NaHCO30.5 M NaCl, adjusted to pH 8.4 with HCl). […] The plates were read on a spectrophotometer at […].

[4] = test system: CRP, TNFA, IL-6, IL-10, cortisol in plasma; test: Plasma acute phase proteins, glucocorticoids and cytokines of healthy volunteers after LPS bolus infusion; format: in vivo, human; conditions: post LPS administration
Experimental: In order to more closely mimic the in vivo inflammatory response to infection in a more controlled setting than the cardiac patients described above, healthy volunteers were administered a 4 ng/kg bolus infusion of LPS and monitored the levels of soluble CD163 in plasma. […] Plasma samples were taken at baseline (before administration of LPS), and then at various time points after LPS infusion up to 72 hours after infusion initiation. Levels of CD163 in plasma were measured using the assay of the present invention. […] In the one volunteer where levels had declined at […], levels remained elevated up to 4 hours before returning to baseline levels by 8 hours. Changes in levels of known acute phase proteins, glucocorticoids, and pro- and anti-inflammatory cytokines were also monitored in order to determine if their levels correlated with the appearance of soluble CD163 in plasma. […] Plasma levels of TNFA, IL-6 and IL-10, all known to be produced following LPS infusion, peaked at 1, 2, and 4 hours post LPS administration, respectively. […] Therefore, CD163 acts as an early signaling event in the inflammatory response cascade.

CD163 expression = test: Monocytes cultured with LPS and/or DEX, immunofluorescence detection of surface CD163; format: cell-based, human; conditions: monocytes cultured with LPS alone
Experimental: In addition to testing the effects of cytokines in combination with glucocorticoids on levels of CD163, studies were performed to examine the effects of glucocorticoids in combination with lipopolysaccharide (LPS). […] However, when monocytes were cultured for 48 hours with DEX combined with LPS, their was a synergistic increase in CD163 expression, where the effect of DEX alone was increased by more than 2-fold when LPS treatment was added.

CD163 = test: Western blots of monocyte lysates; format: cell-based, human

C[C@@H]1C[C@H]2[C@@H]3CCC4=CC(=O)C=C[C@]4(C)[C@@]3(F)[C@@H](O)C[C@]2(C)[C@@]1(O)C(=O)CO [DEX]
increase of monocyte CD163 expression [1]: ~7 fold

CCCCCCCCCCCCCC(=O)O[C@@H]1[C@@H](C)[C@@]2(O)[C@@H](C=C(CO)C[C@]3(O)C(=O)C(C)=C[C@@H]23)[C@@H]2C(C)(C)[C@]12OC(C)=O [PMA]
shedding of surface CD163 from cells pre-treated with glucocorticoids plus LPS (monocyte surface CD163 [2]): remained sensitive
shedding of surface CD163 from monocytes in culture (monocyte surface CD163 [3]): rapid shedding

GM-CSF
CD163 expression of cytokine given in combination with DEX over DEX treatment alone [1]: does not enhance CD163 expression

lipopolysaccharide [LPS]
time to shedding of monocyte surface CD163 (monocyte surface CD163 [2]; in vitro): ≤ 2 h
shedding of surface CD163 from cells pre-treated with glucocorticoids plus LPS (monocyte surface CD163 [2]): largely resistant to shedding
increase of soluble CD163 levels in plasma compared to baseline (soluble CD163 in plasma): ≤ 7 fold
time at which plasma cortisol began to increase [4]: 4 h
time by which plasma CRP increased [4]: ≤ 8 h
time of peak of plasma CRP [4]: 24 h
time of peak of plasma IL-6 [4]: 2 h
time of peak of plasma IL-10 [4]: 4 h
time of peak of plasma TNFA [4]: 1 h
time of peak of plasma cortisol [4]: 6 h
CD163 detected on monocyte surface (CD163 expression): low levels of CD163

B1: IL-4: cytokine interleukin-4 (protein, UniProt P05112 25-153, looked up)
Interleukin-4: HKCDITLQEIIKTLNSLTEQKTLCTELTVTDIFAASKNTTEKETFCRAATVLRQFYSHHEKDTRCLGATAQQFHRHKQLIRFLKRLDRNLWGLAGLNSCPVKEANQSTLENFLERLKTIMREKYSKCSS
CD163 expression of cytokine given in combination with DEX over DEX treatment alone [1]: does not enhance CD163 expression

B2: IL-10: cytokine, originally known as cytokine synthesis inhibitory factor (protein, UniProt P22301 19-178, looked up)
Interleukin-10: SPGQGTQSENSCTHFPGNLPNMLRDLRDAFSRVKTFFQMKDQLDNLLLKESLLEDFKGYLGCQALSEMIQFYLEEVMPQAENQDPDIKAHVNSLGENLKTLRLRLRRCHRFLPCENKSKAVEQVKNAFNKLQEKGIYKAMSEFDIFINYIEAYMTMKIRN
CD163 expression of cytokine given in combination with DEX over DEX treatment alone [1]: significantly increased CD163 expression
increase of monocyte CD163 expression [1]: approximately 4 fold
CD163 expression by western blot (CD163): increased expression of CD163
